Experimental data taken from patent publication US20260193179A9 (priority 2018, published 2026).
Structures can show the parent of a compound that is named as a salt. Where two headings read alike, the source gives them in different places.

Experiments:
human α-thrombin = human α-thrombin (Homo sapiens, UniProt P00734); test: Enzymatic Assay for Thrombin (Boc-VPR-AMC substrate); format: biochemical
mMASP-2 = mMASP-2 (Mus musculus, UniProt Q91WP0); test: Enzymatic assay for mMASP-2; format: biochemical
Sequence of mMASP-2 (Q91WP0 20-685): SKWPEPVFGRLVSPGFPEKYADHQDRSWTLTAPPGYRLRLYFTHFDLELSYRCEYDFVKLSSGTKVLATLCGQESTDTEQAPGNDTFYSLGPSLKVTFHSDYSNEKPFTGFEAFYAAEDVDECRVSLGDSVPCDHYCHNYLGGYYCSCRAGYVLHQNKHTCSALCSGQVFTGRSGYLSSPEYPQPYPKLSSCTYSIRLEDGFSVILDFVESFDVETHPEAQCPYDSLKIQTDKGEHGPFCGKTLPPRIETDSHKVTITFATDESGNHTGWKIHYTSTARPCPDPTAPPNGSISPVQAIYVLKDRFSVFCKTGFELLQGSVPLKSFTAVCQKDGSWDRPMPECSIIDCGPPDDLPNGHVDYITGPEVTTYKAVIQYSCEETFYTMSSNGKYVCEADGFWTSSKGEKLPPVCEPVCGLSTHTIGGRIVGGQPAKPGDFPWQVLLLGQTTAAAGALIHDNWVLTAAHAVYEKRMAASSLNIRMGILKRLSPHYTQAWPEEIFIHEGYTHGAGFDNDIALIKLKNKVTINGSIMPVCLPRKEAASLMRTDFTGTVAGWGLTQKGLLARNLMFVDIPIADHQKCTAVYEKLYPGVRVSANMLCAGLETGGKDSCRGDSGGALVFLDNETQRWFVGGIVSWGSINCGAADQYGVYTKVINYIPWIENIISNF

Lectin Pathway = Lectin Pathway Activation Assay in Human Serum (mannan-coated ELISA, C3c detection); format: biochemical; details: 1% human serum
Protocol: Microtiter ELISA plate was coated with mannan from Saccharomyces cerevisiae (Sigma-Aldrich, M7504) for overnight at 4° C. in coating buffer [15 mM Na2CO3, 35 mM NaHCO3]. Plate was blocked with 1% bovine serum albumin (BSA) (Sigma-Aldrich, A3294) in Tris-buffered Saline (TBS) [10 mM Tris-HCl, 140 mM NaCl] for 2 hours at room temperature. […] 100 μL of this mixture were then added to the plate and plate was incubated at 37° C. for up to an hour with gentle shaking, 200 rpm. After that, plate was washed thrice in wash buffer [TBS containing 5 mM CaCl2) and 0.05% Tween-20] and 100 μL of rabbit anti human C3c (Dako, A0062) diluted 1:5000 in wash buffer were added and incubated at 37° C. for 30 minutes.

MASP-2 (CCP1-CCP2-SP) [1] = biological target: MASP-2 (CCP1-CCP2-SP) (Homo sapiens, UniProt O00187); test: Enzymatic Assay for MASP-2 (fluorogenic substrate); format: biochemical
Sequence of MASP-2 (CCP1-CCP2-SP) (Homo sapiens, UniProt O00187) (O00187 445-686): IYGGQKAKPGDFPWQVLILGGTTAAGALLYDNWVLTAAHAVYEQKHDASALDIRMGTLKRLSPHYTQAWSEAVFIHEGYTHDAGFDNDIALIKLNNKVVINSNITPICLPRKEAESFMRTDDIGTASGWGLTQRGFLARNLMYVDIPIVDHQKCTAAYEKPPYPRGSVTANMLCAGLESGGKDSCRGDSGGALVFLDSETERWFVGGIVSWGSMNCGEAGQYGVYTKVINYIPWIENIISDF
Sequence of MASP-2 (CCP1-CCP2-SP) (Homo sapiens, UniProt O00187) (O00187 298-444): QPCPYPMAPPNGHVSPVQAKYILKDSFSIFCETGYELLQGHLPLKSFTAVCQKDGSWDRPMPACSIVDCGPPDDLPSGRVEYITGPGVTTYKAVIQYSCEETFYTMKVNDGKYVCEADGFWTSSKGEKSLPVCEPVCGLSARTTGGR

MASP-2 (CCP1-CCP2-SP) [2] = test: Enzymatic Assay for MASP-2 (fluorogenic substrate); format: biochemical, human; details: selectivity for MASP-2 inhibition versus thrombin
[3] = human α-thrombin, Boc-VPR-AMC substrate

Row | Structure (SMILES) | Ki (mMASP-2) | Ki (MASP-2 (CCP1-CCP2-SP) [1]) | MASP-2 vs. thrombin selectivity (MASP-2 (CCP1-CCP2-SP) [2]) | IC50 (Lectin Pathway; mannan-coated plate) | other results
1 | Cc1nc(N)ccc1CNC(=O)C(C)NC(=O)[C@H]1C[C@H](c2cccc(-c3ccccc3)c2)CN1 (stereo in doubt) [compound 1359, (2R,4R)-4-([1,1′-Biphenyl]-3-yl)-N—((S)-1-(((6-amino-2-methylpyridin-3-yl)methyl)amino)-1-oxopropan-2-yl)pyrrolidine-2-carboxamide Di-trifluoroacetate salt] | – | – | – | – | Ki (human α-thrombin; [3]): > 25000 nM
2 | C[C@H](NC(=O)[C@H](N)CCc1ccccc1)C(=O)NCc1cccc(Cl)c1 [compound 1021] | > 25000 nM | – | – | – | IC50 (Lectin Pathway): > 50000 nM; Ki (human α-thrombin): > 25000 nM
3 | C[C@H](NC(=O)[C@H](N)CCc1ccccc1)C(=O)NCc1ccc2c(N)ncnc2c1 [compound 1060, (R)-2-Amino-N—((S)-1-(((4-aminoquinazolin-7-yl)methyl)amino)-1-oxopropan-2-yl)-4-phenylbutanamide Dihydrochloride] | – | < 2500 nM | – | – | –
4 | C[C@H](NC(=O)[C@H](N)CCc1cccc(Cl)c1)C(=O)NCc1ccc(C(=N)N)cc1 [compound 1081] | < 500 nM | – | – | – | IC50 (Lectin Pathway): 50 to 5000 nM
5 | C[C@H](NC(=O)[C@@H](CCc1ccccc1)NCc1ccc(C(=O)N2CCOCC2)cc1)C(=O)NCc1ccc(C(=N)N)cc1 [compound 1153] | – | < 500 nM | – | – | Ki (human α-thrombin): < 500 nM
6 | C[C@H](NC(=O)[C@H](N)CCc1ccccc1)C(=O)NCc1cc(Cl)ccc1C#N [compound 1313, Trifluoroacetate salt] | > 25000 nM | 2500 to 10000 nM | – | – | Ki (human α-thrombin; [3]): 10000 to 25000 nM
7 | C[C@H](OC(=O)[C@H](N)CCc1ccccc1)C(=O)NCc1ccc(C(=N)N)cc1 [compound 1315, (S)-1-((4-Carbamimidoylbenzyl)amino)-1-oxopropan-2-yl (R)-2-amino-4-phenylbutanoate Hydrochloride] | – | 500 to 2500 nM | – | – | Ki (human α-thrombin; [3]): 2500 to 10000 nM
8 | Cc1nc(N)ccc1CNC(=O)[C@H](C)NC(=O)[C@H]1C[C@H](Cc2ccc(-c3cccnc3)cc2)CN1 [compound 1357, (2R,4S)—N—((S)-1-(((6-Amino-2-methylpyridin-3-yl)methyl)amino)-1-oxopropan-2-yl)-4-(4-(pyridin-3-yl)benzyl)pyrrolidine-2-carboxamide Di-trifluoracetate salt] | – | – | **** (≥100-fold) | < 50 nM | –
9 | Cc1cc(Cl)cc(CNC(=O)[C@H](C)NC(=O)[C@H]2C[C@@H](c3ccccc3)CCN2)c1O [compound 1365, (2R,4S)—N—((S)-1-((5-Chloro-2-hydroxy-3-methylbenzyl)amino)-1-oxopropan-2-yl)-4-phenylpiperidine-2-carboxamide] | – | – | **** (≥100-fold) | < 50 nM | –
10 | Cc1nc(N)ccc1CNC(=O)[C@H](CCC(N)=O)NC(=O)[C@H](N)CCc1ccccc1 [compound 1376, (S)—N^1-((6-Amino-2-methylpyridin-3-yl)methyl)-2-((R)-2-amino-4-phenylbutanamido)pentanediamide] | > 25000 nM | 500 to 2500 nM | – | – | Ki (human α-thrombin; [3]): > 25000 nM
11 | Cc1nc(N)ccc1CNC(=O)[C@H](C)NC(=O)[C@H]1C[C@H](Cc2ccc(C3CCC3)cc2)CN1 [compound 1379, (2R,4S)—N—((S)-1-(((6-Amino-2-methylpyridin-3-yl)methyl)amino)-1-oxopropan-2-yl)-4-(4-cyclobutylbenzyl)pyrrolidine-2-carboxamide] | – | – | **** (≥100-fold) | 500 to 5000 nM | –
12 | C[C@H](NC(=O)[C@H]1C[C@H](Cc2ccc3ccccc3c2)CN1)C(=O)NCc1cc(Cl)ccc1-n1cnnn1 [compound 1385, (2R,4S)—N—((S)-1-((5-chloro-2-(1H-tetrazol-1-yl)benzyl)amino)-1-oxopropan-2-yl)-4-(naphthalen-2-ylmethyl)pyrrolidine-2-carboxamide] | – | – | ** (≥5.0 to <25-fold) | 50 to 500 nM | –
13 | Cc1nc(N)ccc1CNC(=O)[C@H](C)NC(=O)[C@H]1C[C@H](Cc2ccc(N3CCCC3=O)cc2)CN1 [compound 1391, (2R,4S)—N—((S)-1-(((6-Amino-2-methylpyridin-3-yl)methyl)amino)-1-oxopropan-2-yl)-4-(4-(2-oxopyrrolidin-1-yl)benzyl)pyrrolidine-2-carboxamide] | – | – | **** (≥100-fold) | 500 to 5000 nM | –
14 | C[C@H](NC(=O)[C@H]1C[C@H](Cc2ccccc2-c2ccccc2)CN1)C(=O)NCc1cnc2[nH]cc(Cl)c2c1 [compound 1393, (2R,4S)-4-([1,1′-Biphenyl]-2-ylmethyl)-N—((S)-1-(((3-chloro-1H-pyrrolo[2,3-b]pyridin-5-yl)methyl)amino)-1-oxopropan-2-yl)pyrrolidine-2-carboxamide] | – | – | * (≥1.0 to <5.0-fold) | 50 to 500 nM | –
15 | COc1cc(C[C@@H]2CN[C@@H](C(=O)N[C@@H](C)C(=O)NCc3cc(Cl)ccc3-n3cnnn3)C2)cc(OC)c1 [compound 1419, (2R,4S)—N—((S)-1-((5-Chloro-2-(1H-tetrazol-1-yl)benzyl)amino)-1-oxopropan-2-yl)-4-(3,5-dimethoxybenzyl)pyrrolidine-2-carboxamide] | < 500 nM | – | * (≥1.0 to <5.0-fold) | – | –
